PubChem BioAssay (NCI)
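Assay format: 96-well plates, 48-hour exposure. GI50: concentration for 50% inhibition of growth. At the TGI there is no net growth.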 Where a SMILES comes first, the peptide text is derived from it.

Experiments:
Test in all cases: inhibition of tumour cell growth, NCI panel, 48 h
[1] = tested on: RXF 393 renal
[2] = tested on: HOP-92 NSCLC
[3] = tested on: HOP-62 NSCLC
[4] = tested on: COLO 205 colon
[5] = tested on: MCF7 breast
[6] = tested on: SK-MEL-28 melanoma
[7] = tested on: K-562 leukemia
[8] = tested on: EKVX NSCLC
[9] = tested on: SK-OV-3 ovarian
[10] = tested on: UO-31 renal

SMILES	TGI [1]	TGI [2]	TGI [3]	TGI [4]	TGI [5]	TGI [6]	TGI [7]	TGI [8]	TGI [9]	TGI [10]	GI50 [1]	GI50 [2]	GI50 [3]	GI50 [4]	GI50 [5]	GI50 [6]	GI50 [7]	GI50 [9]	GI50 [8]	GI50 [10]
CCOC(=O)C12CC(C)=C(C)CC1CCCc1ccccc12 (stereo unspecified)	43.1 µM	38.8 µM	> 100 µM	33.9 µM	35.2 µM	92.7 µM	78.2 µM	49.5 µM	> 100 µM	> 100 µM										
COP(=O)(OC)[C@H](O)[C@H]1C[C@@H]1c1ccccc1	> 100 µM	> 100 µM	> 100 µM	> 100 µM	> 100 µM	> 100 µM	> 100 µM	> 100 µM	> 100 µM	> 100 µM										
COc1ccc(N=Cc2ccc(N(CCC#N)S(=O)(=O)c3ccccc3)cc2C)cc1	> 100 µM	> 100 µM	> 100 µM	96.3 µM		> 100 µM	> 100 µM	> 100 µM	> 100 µM	> 100 µM										
COc1cc(C2C(=O)C(Cl)N2Nc2nc(C)cc(=O)[nH]2)cc(OC)c1OC (stereo unspecified)	26.4 µM	37.3 µM	> 100 µM			49.6 µM	41.1 µM	> 100 µM		79.1 µM										
Cc1ccc2c3c1[C@@H]1O[C@@H]1c1cccc(c1-3)[C@@H]1O[C@H]21		36.8 µM	32 µM	33.9 µM	34.8 µM	23.5 µM	37.5 µM	32.3 µM	63.9 µM	27.7 µM										
COc1cccc(NC(=O)CC(=O)NN2C(=O)/C(=C/c3ccc(N(CCC#N)CCC#N)cc3)N=C2c2cc([N+](=O)[O-])ccc2Cl)c1	> 100 µM	> 100 µM	> 100 µM	> 100 µM		> 100 µM	> 100 µM	> 100 µM	> 100 µM	> 100 µM										
Cc1cn(Cc2cn(CC3OC(n4cc(C)c(=O)[nH]c4=O)CC3O)nn2)c(=O)[nH]c1=O (stereo unspecified)	> 100 µM		> 100 µM	> 100 µM	> 100 µM	> 100 µM		> 100 µM	> 100 µM	> 100 µM										
COc1ccc(N=Nc2c(N)nn(C)c2N)cc1	> 100 µM	> 100 µM	> 100 µM	> 100 µM		> 100 µM	> 100 µM	> 100 µM	> 100 µM	> 100 µM										
CCCCCCCCCCCCSC(=S)c1c(C)[nH]n(CCCCCCCCCCCC)c1=O			> 100 µM	> 100 µM		> 100 µM	> 100 µM	81.1 µM	> 100 µM	> 100 µM										
COC(=O)c1ccc2c(c1)sc1nc(-c3ccc(OC)cc3)cn12	> 100 µM	> 100 µM	> 100 µM	> 100 µM	> 100 µM	> 100 µM	> 100 µM	> 100 µM	> 100 µM	> 100 µM										
CCCC[C@H]1C(=O)O[C@H](C)[C@H](NC(=O)c2cccc(NC=O)c2OC)C(=O)O[C@@H](C)[C@@H]1OC(=O)CC(C)C (tested in a mixture with another compound)	34.6 µM	27.2 µM	44.5 µM	27.1 µM	28.1 µM	52.8 µM	58 µM	31.3 µM	30.1 µM	41.4 µM										
CCC(C)C(NC(=O)C(CC(C)C)NC(=O)CNC(=O)C(NC(=O)C1CCCN1C(=O)C(CC(C)C)NC(=O)C(N)Cc1ccccc1)C(C)CC)C(=O)NC(CC(C)C)C(N)=O (stereo unspecified) (H-FLPIGLIL-NH2; configuration not given here)		> 75 µM	> 75 µM	> 75 µM	> 75 µM	> 75 µM	> 75 µM	> 75 µM	> 75 µM	> 75 µM										
COc1ccc2c(c1)CCCc1c-2nc2ccccc2c1N	18.7 µM	18.9 µM	12.9 µM	3.22 µM	24.9 µM	25.5 µM	58.5 µM	22.2 µM	24.2 µM	18.5 µM										
O=C(CSSCC(=O)OCCS(=O)(=O)Nc1ccc(Br)cc1)OCCS(=O)(=O)Nc1ccc(Br)cc1	16.8 µM	51.5 µM		62.2 µM		96.4 µM	> 100 µM	> 100 µM	89.8 µM	> 100 µM										
O=c1c(-c2ccccc2)c(SCCN2CCOCC2)n(-c2ccccc2)c(=S)n1-c1ccccc1	> 100 µM	> 100 µM	> 100 µM	> 100 µM	> 100 µM	> 100 µM	> 100 µM	> 100 µM	> 100 µM											
CCCCCCCCCCCCCCCCCC(=O)OCC1OC(OC)C(NC(=O)N(CCCl)N=O)C(O)C1O (stereo unspecified)	32.1 µM		> 100 µM	> 100 µM		53.1 µM	> 100 µM			56.8 µM										
O=c1[nH]c(=O)n(CCOCP(=O)(O)O)nc1Br	> 100 µM	> 100 µM	> 100 µM	> 100 µM	> 100 µM	> 100 µM		> 100 µM		> 100 µM										

SMILES	TGI [1]	TGI [2]	TGI [3]	TGI [4]	TGI [5]	TGI [6]	TGI [7]	TGI [8]	TGI [9]	TGI [10]	GI50 [1]	GI50 [2]	GI50 [3]	GI50 [4]	GI50 [5]	GI50 [6]	GI50 [7]	GI50 [9]	GI50 [8]	GI50 [10]
Cc1cc(=O)n2c3c(c4c(cc13)c(CN(C)C)cc(=O)n4C)OC2	28.7 µM	97.6 µM	> 100 µM	35.1 µM	> 60.5 µM	> 85.8 µM	> 100 µM	> 58.2 µM	> 94.7 µM	> 89.8 µM										
NC(=O)CCSC(CC(=O)c1ccc(Cl)cc1)c1ccc(Cl)cc1 (stereo unspecified)	32.6 µM	45.5 µM	93.1 µM	> 100 µM	47.4 µM	> 100 µM	> 100 µM	93.7 µM	> 100 µM	> 100 µM										
Cn1c(=O)ccc2c(=O)c3ccccc3oc21	> 100 µM	> 100 µM	> 100 µM	> 100 µM		> 100 µM	> 100 µM	> 100 µM	> 100 µM	16.8 µM										
O=S(=O)(O)c1ccc2c(N=Nc3ccccc3)c(O)ccc2c1	> 100 µM	> 100 µM	> 100 µM	> 100 µM	> 100 µM	> 100 µM	> 100 µM	> 100 µM	> 100 µM	> 100 µM										
COc1cc(/C=C2\N=C(c3ccccc3)N(c3nc4ccc(Sc5ccccc5)cc4[nH]3)C2=O)cc(OC)c1OC	> 100 µM	> 100 µM	> 100 µM	33 µM	45.9 µM	67.4 µM	48.1 µM	> 100 µM	> 100 µM	> 100 µM										
Cn1c2cn[nH]c(=O)c2c2ccc3ccccc3c21	62.9 µM	60.8 µM	31.8 µM	> 100 µM	> 100 µM		> 100 µM	75.3 µM	> 100 µM	70.6 µM										
O=C(O)CCCN=C(C1=C(O)C(=O)N(c2ccccc2)C1=O)c1ccccc1	> 100 µM	> 100 µM	> 100 µM	> 100 µM	> 100 µM	> 100 µM	> 100 µM	> 100 µM	> 100 µM	> 100 µM										
O=c1[nH]c2cc([N+](=O)[O-])c(N/N=C/c3ccc(Cl)cc3Cl)c([N+](=O)[O-])c2[nH]1	40.9 µM	> 100 µM	> 100 µM	> 100 µM	> 100 µM	> 100 µM	> 100 µM	> 100 µM	77.5 µM	> 100 µM										
N=C(N)c1ccc(N=Nc2c(O)ccc3cc4c(N=Nc5ccc(C(=N)N)cc5)c(O)ccc4cc23)cc1	> 100 µM	> 100 µM	> 100 µM	> 100 µM	> 100 µM	> 100 µM	> 100 µM	> 100 µM	> 100 µM	> 100 µM										
C=C1c2nc3ccccc3n2C=C(c2ccc(Cl)cc2)N1c1ccc(OCCN2CCCCC2)cc1	> 100 µM	> 100 µM	> 100 µM	> 100 µM	> 100 µM	> 100 µM	> 100 µM	> 100 µM	> 100 µM	> 45 µM	> 100 µM	> 100 µM	> 100 µM	> 100 µM	> 100 µM	32.8 µM	1.09 µM	> 100 µM		
Cc1ccc(C(=O)Nc2ncn(C3CC(O)C(CO)O3)c(=O)n2)cc1 (stereo unspecified)	> 100 µM	> 100 µM	> 100 µM	> 100 µM	> 100 µM	> 100 µM	> 100 µM	> 100 µM	> 100 µM	> 100 µM										
N#Cc1c(-c2ccc(Cl)cc2)c2c([nH]c1=O)-c1cc([N+](=O)[O-])ccc1CCC2	37.6 µM	38.5 µM	45.9 µM	49.7 µM	83 µM	63.6 µM	> 100 µM	51.2 µM	> 100 µM	32.5 µM										
O=C([CH-]C(=O)c1ccccc1)c1ccccc1.O=C([CH-]C(=O)c1ccccc1)c1ccccc1.O=C([CH-]C(=O)c1ccccc1)c1ccccc1.[Cl-].[Hf+4]	23.2 µM	36.1 µM		> 100 µM		82.5 µM	> 100 µM	77.2 µM	62.3 µM	96.9 µM	7.68 µM	10.9 µM		23.9 µM		20.3 µM	7.11 µM	22.7 µM	24.8 µM	26.8 µM
C/C(=C\C(=N\NC(=N)N)c1ccccc1)c1ccccc1	8.42 µM	3.22 µM	0.7 µM	0.284 µM	1.58 µM	8.86 µM	3.88 µM		15.7 µM											
O=CN1CCC23CC(O)CCC2C1Cc1cc(Oc2nnnn2-c2ccccc2)cc(O)c13 (stereo unspecified)	> 100 µM	> 100 µM	> 100 µM	> 100 µM	> 100 µM	> 100 µM	> 100 µM	> 100 µM	> 100 µM	> 100 µM										
CCN(CCO)CCNc1ccc(C)c2sc3ccccc3c(=O)c12	5.64 µM	14.1 µM	11 µM	3.12 µM	3.24 µM	3.77 µM	11.9 µM	26.8 µM	18.1 µM	15 µM										
C=C1CC2C3C=C(C)C4=CC(=O)CC[C@]4(C)C3CC[C@]2(C)[C@@]1(OC(C)=O)C(C)=O (stereo partly specified)	> 100 µM		> 100 µM		> 100 µM			> 100 µM			4.31 µM		7.76 µM		4.16 µM				2.1 µM	
